≈ marks a conversion by molar mass, not a printed value.
Assays:
[1] = system: Diplodia maydis (Dm); assay: In vitro pathogen growth inhibition assay, Dm; format: cell-based; conditions: Stenocarpella maydis, 48 h, ≥90% growth inhibition; 48 hours; vs 2% DMSO control; read-out: Compound Concentration (ppm) sufficient for ≥90% inhibition of Dm
In short: (§1)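 Spores in 17% V8 liquid medium, or 1.5 mm Rs mycelial plugs in ¼ PDB, incubated with compound; final concentration checked by OD600 for precipitation. OD readings at 24 and 48 h, blank-subtracted, plus visual ratings; value is concentration giving ≥90% growth inhibition.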

[2] = system: Phytophthora capsici (Pc); assay: In vitro pathogen growth inhibition assay, Pc; format: cell-based; conditions: 48 h, ≥90% growth inhibition, 48 hours, vs 2% DMSO control, read-out: Compound Concentration (ppm) sufficient for ≥90% inhibition of Pc
In short: as §1

[3] = system: Puccinia triticina; assay: Foliar protection test for wheat leaf rust control; format: in vivo; conditions: foliar application to wheat (Triticum aestivum cv. Winterhawk), evaluated 10 days later
[4] = system: Septoria tritici (St); assay: In vitro pathogen growth inhibition assay, St; format: cell-based; conditions: Zymoseptoria tritici, 48 h, ≥90% growth inhibition; 48 hours; vs 2% DMSO control; read-out: Compound Concentration (ppm) sufficient for ≥90% inhibition of St
In short: (§2)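 Value reported is the compound concentration reaching ≥90% growth inhibition, from OD readings at 24 and 48 h after blank subtraction, confirmed visually. Inoculum was spores diluted in 17% V8 medium, except Rs, using 1.5 mm mycelial plugs in ¼ PDB; actual compound concentration corrected via OD600.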

[5] = system: Sphaerotheca fuliginea; assay: Foliar protection for cucumber powdery mildew control; format: in vivo; conditions: foliar spray on Cucumis sativus cv. Straight Eight, inoculated 24 hours after treatment, evaluated 7 days later
In short: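 Protective foliar spray on 10-day-old Straight Eight cucumbers, with S. fuliginea spores dusted from infected stock plants 24 h after treatment. Disease developed at 23–27 °C, 60% RH and a 16 h photoperiod. Leaves were rated for mildew growth after 7 days; test rates 10 ppm or below.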

[6] = system: Phakopsora pachyrhizi; assay: Foliar protection test for Asian soybean rust control; format: in vivo; conditions: foliar application to soybean (Glycine max AG4832), percent disease area evaluated 14 days later
[7] = system: Fusarium graminearum; format: in vivo; conditions: spray on flowering Triticum aestivum cv. Samson, inoculated 24 hours after treatment, evaluated 14 days later
[8] = system: Botrtyis cinerea (Bc); assay: In vitro pathogen growth inhibition assay, Bc; format: cell-based; conditions: 48 h, ≥90% growth inhibition; 48 hours; vs 2% DMSO control; read-out: Compound Concentration (ppm) sufficient for ≥90% inhibition of Bc
In short: as §2

[9] = system: Fusarium moniliforme (Fm); assay: In vitro pathogen growth inhibition assay, Fm; format: cell-based; conditions: Fusarium verticillioides; ≥90% growth inhibition; 48 hours; vs 2% DMSO control; read-out: Compound Concentration (ppm) sufficient for ≥90% inhibition of Fm
In short: as §2

[10] = system: Fusarium virguliforme (Fv); assay: In vitro pathogen growth inhibition assay, Fv; format: cell-based; conditions: ≥90% growth inhibition, 48 hours, vs 2% DMSO control, read-out: Compound Concentration (ppm) sufficient for ≥90% inhibition of Fv
In short: as §1

[11] = system: Mycosphaerella graminicola (synthetic Septoria tritici); assay: Foliar protection test for wheat septoria leaf blotch control; format: in vivo; conditions: foliar spray on Triticum aestivum cv. WinterHawk, inoculated 1 hour after treatment, evaluated 16 days later
[12] = system: Collectotrichum graminicola (Cg); assay: In vitro pathogen growth inhibition assay, Cg; format: cell-based; conditions: 48 h, ≥90% growth inhibition; 48 hours; vs 2% DMSO control; read-out: Compound Concentration (ppm) sufficient for ≥90% inhibition of Cg
In short: as §2

[13] = system: Rhizoctonia solani (Rs); assay: In vitro pathogen growth inhibition assay, Rs (mycelial plugs); format: cell-based; conditions: Rhizoctonia solani, 48 h, ≥90% growth inhibition; mycelial plugs; 48 hours; vs 2% DMSO control; read-out: Compound Concentration (ppm) sufficient for ≥90% inhibition of Rs
In short: as §1

[14] = system: Blumeria graminis f. sp. hordei; assay: Foliar protection test for barley powdery mildew control; format: in vivo; conditions: foliar spray on Hordeum vulgare cv. Perry, inoculated 24 hours after treatment, evaluated 7 days later
In short: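 Protective foliar test: compound atomized onto both leaf surfaces of 6-day-old Hordeum vulgare cv. Perry, followed after 24 h by spore-cloud inoculation from colonized untreated plants. Disease rated on leaves 7 days on, plants held at 20 to 22° C and 70% RH.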

| Compound | IC90 [1] | IC90 [2] | Wheat Leaf Rust Control at a compound concentration of 10 ppm or lower [3] | IC90 [4] | Cucumber Powdery Mildew Control at a compound concentration of 10 ppm or lower [5] | Asian Soybean Rust Control at a compound concentration of 25 ppm or lower [6] | Wheat Fusarium Head Blight Control at a compound concentration of 25 ppm or lower [7] | IC90 [8] | IC90 [9] | IC90 [10] | Septoria Leaf Blotch Control at a compound concentration of 25 ppm or lower [11] | IC90 [12] | IC90 [13] | Barley Powdery Mildew Control at a compound concentration of 10 ppm or lower [14] |
| --- | --- | --- | --- | --- | --- | --- | --- | --- | --- | --- | --- | --- | --- | --- |
| COc1ccc(F)cc1[C@H](Cn1c(=O)n(C(C)(C)C(=O)NC(C)C)c(=O)c2c(C)c(-n3nccn3)sc21)OCC(C)(C)C#N [Compound I-213, (R)-2-(1-(2-(2-cyano-2-methylpropoxy)-2-(5-fluoro-2-methoxyphenyl)ethyl)-5-methyl-2,4-dioxo-6-(2H-1,2,3-triazol-2-yl)-1,4-dihydrothieno[2,3-d]pyrimidin-3 (2H)-yl)-N-isopropyl-2-methylpropanamide] | ≥ 0.08 µg/mL | > 50 µg/mL | B (from 50 to 69% control of wheat leaf rust) | > 50 µg/mL | AA (≥85% control of cucumber powdery mildew) | B (from 50 to 69% control of Asian soybean rust) | B (from 50 to 69% control of wheat fusarium head blight) | 0.4 µg/mL (≈ 0.639 µM) | 0.08 µg/mL (≈ 0.128 µM) | 0.4 µg/mL (≈ 0.639 µM) | AA (≥85% control of wheat septoria leaf blotch) | 0.4 µg/mL (≈ 0.639 µM) | 0.08 µg/mL (≈ 0.128 µM) | A (from 70% to 84% control of barley powdery mildew) |
| CCOC(=O)c1sc2c(c1C)c(=O)n([C@H](C)C(=O)N(C)C(C)C)c(=O)n2C[C@H](OCCC#N)c1cc(F)ccc1OC [Compound I-229, (R)-ethyl-1-(2-(2-cyanoethoxy)-2-(5-fluoro-2-methoxyphenyl)ethyl)-3-((R)-1-(isopropyl(methyl)amino)-1-oxopropan-2-yl)-5-methyl-2,4-dioxo-1,2,3,4-tetrahydrothieno[2,3-d]pyrimidine-6-carboxylate] | 2 µg/mL (≈ 3.32 µM) | > 50 µg/mL | B (from 50 to 69% control of wheat leaf rust) | > 50 µg/mL | AA (≥85% control of cucumber powdery mildew) | C (from 25 to 49% control of Asian soybean rust) | C (from 25 to 49% control of wheat fusarium head blight) | 2 µg/mL (≈ 3.32 µM) | 0.08 µg/mL (≈ 0.133 µM) | 0.4 µg/mL (≈ 0.664 µM) | D (<25% control of wheat septoria leaf blotch) | 2 µg/mL (≈ 3.32 µM) | 2 µg/mL (≈ 3.32 µM) | AA (≥85% control of barley powdery mildew) |
| CCNC(=O)C(C)(C)n1c(=O)c2c(C)c(C(=O)OCC)sc2n(C[C@H](OCCC#N)c2cc(F)ccc2OC)c1=O [Compound I-231, (R)-ethyl-1-(2-(2-cyanoethoxy)-2-(5-fluoro-2-methoxyphenyl)ethyl)-3-(1-(ethylamino)-2-methyl-1-oxopropan-2-yl)-5-methyl-2,4-dioxo-1,2,3,4-tetrahydrothieno[2,3-d]pyrimidine-6-carboxylate] | 0.4 µg/mL (≈ 0.68 µM) | > 50 µg/mL | AA (≥85% control of wheat leaf rust) | ≥ 10 µg/mL | AA (≥85% control of cucumber powdery mildew) | A (from 70% to 84% control of Asian soybean rust) | C (from 25 to 49% control of wheat fusarium head blight) | 2 µg/mL (≈ 3.4 µM) | 0.08 µg/mL (≈ 0.136 µM) | 2 µg/mL (≈ 3.4 µM) | C (from 25 to 49% control of wheat septoria leaf blotch) | 0.4 µg/mL (≈ 0.68 µM) | 0.08 µg/mL (≈ 0.136 µM) | AA (≥85% control of barley powdery mildew) |
| CCOC(=O)c1sc2c(c1C)c(=O)n(C(C)(C)C(=O)NC(C)C)c(=O)n2C[C@H](OCCC#N)c1ccccc1OC [Compound I-233, (R)-ethyl-1-(2-(2-cyanoethoxy)-2-(2-methoxyphenyl)ethyl)-3-(1-(isopropylamino)-2-methyl-1-oxopropan-2-yl)-5-methyl-2,4-dioxo-1,2,3,4-tetrahydrothieno[2,3-d]pyrimidine-6-carboxylate] | 0.4 µg/mL (≈ 0.684 µM) | ≥ 2 µg/mL | AA (≥85% control of wheat leaf rust) | ≥ 10 µg/mL | A (from 70% to 84% control of cucumber powdery mildew) | A (from 70% to 84% control of Asian soybean rust) | C (from 25 to 49% control of wheat fusarium head blight) | 0.4 µg/mL (≈ 0.684 µM) | 0.08 µg/mL (≈ 0.137 µM) | 0.4 µg/mL (≈ 0.684 µM) | C (from 25 to 49% control of wheat septoria leaf blotch) | 0.4 µg/mL (≈ 0.684 µM) | 2 µg/mL (≈ 3.42 µM) | AA (≥85% control of barley powdery mildew) |
| CCNC(=O)C(C)(C)n1c(=O)c2c(C)c(C(=O)OCC)sc2n(C[C@H](OCCC#N)c2ccccc2OC)c1=O [Compound I-234, (R)-ethyl-1-(2-(2-cyanoethoxy)-2-(2-methoxyphenyl)ethyl)-3-(1-(ethylamino)-2-methyl-1-oxopropan-2-yl)-5-methyl-2,4-dioxo-1,2,3,4-tetrahydrothieno[2,3-d]pyrimidine-6-carboxylate] | 2 µg/mL (≈ 3.5 µM) | > 50 µg/mL | AA (≥85% control of wheat leaf rust) | > 10 µg/mL | AA (≥85% control of cucumber powdery mildew) | A (from 70% to 84% control of Asian soybean rust) | C (from 25 to 49% control of wheat fusarium head blight) | 2 µg/mL (≈ 3.5 µM) | 0.08 µg/mL (≈ 0.14 µM) | 2 µg/mL (≈ 3.5 µM) | C (from 25 to 49% control of wheat septoria leaf blotch) | 2 µg/mL (≈ 3.5 µM) | 2 µg/mL (≈ 3.5 µM) | AA (≥85% control of barley powdery mildew) |
